Results: patent publication US20200390774A1, “TRPA1 ANTAGONISTS FOR USE IN THE TREATMENT OF ATOPIC DERMATITIS” (GALDERMA RESEARCH & DEVELOPMENT, priority 2016, published 2020)

Tests used:
[1] = system: TRPA1 agonist-induced ear edema; test: Topical PD model: AITC (TRPA1 agonist)-induced ear edema; format: in vivo, mouse; details: topical 1% or 3% in acetone, 1 h before 6% AITC, measured during 6 hours
Experimental: Test antagonists B to D were formulated at 1% or 3% in an acetone vehicle, applied to the mouse ear skin (10 μl/ear both faces) and left for 1 hour. Then, 10 μl of a 6% solution of allyl isothiocyanate (AITC) in acetone (vehicle 001) was applied to the same location, and ear thickness was measured at TO, 30 min, 1 h, 2 h, 4 h and 6 h. A topical pharmacodynamics (PD) model was designed in mouse, in which test antagonists B to D were formulated at 1% or 3% in an acetone vehicle, applied to the ear skin and left for 1 hour. After this time, a 6% solution of allyl isothiocyanate (AITC), a TRPA1 agonist, in acetone (vehicle 001) was then applied to the same location and ear edema (via the ear thickness) was measured during 6 hours.

[2] = cited from earlier work
pain models = details: cited from earlier work
hTRPV3 = target: T1, hTRPV3 (Homo sapiens, UniProt Q8NET8); details: unit inferred; cited from earlier work
T1 sequence (Q8NET8 1-790): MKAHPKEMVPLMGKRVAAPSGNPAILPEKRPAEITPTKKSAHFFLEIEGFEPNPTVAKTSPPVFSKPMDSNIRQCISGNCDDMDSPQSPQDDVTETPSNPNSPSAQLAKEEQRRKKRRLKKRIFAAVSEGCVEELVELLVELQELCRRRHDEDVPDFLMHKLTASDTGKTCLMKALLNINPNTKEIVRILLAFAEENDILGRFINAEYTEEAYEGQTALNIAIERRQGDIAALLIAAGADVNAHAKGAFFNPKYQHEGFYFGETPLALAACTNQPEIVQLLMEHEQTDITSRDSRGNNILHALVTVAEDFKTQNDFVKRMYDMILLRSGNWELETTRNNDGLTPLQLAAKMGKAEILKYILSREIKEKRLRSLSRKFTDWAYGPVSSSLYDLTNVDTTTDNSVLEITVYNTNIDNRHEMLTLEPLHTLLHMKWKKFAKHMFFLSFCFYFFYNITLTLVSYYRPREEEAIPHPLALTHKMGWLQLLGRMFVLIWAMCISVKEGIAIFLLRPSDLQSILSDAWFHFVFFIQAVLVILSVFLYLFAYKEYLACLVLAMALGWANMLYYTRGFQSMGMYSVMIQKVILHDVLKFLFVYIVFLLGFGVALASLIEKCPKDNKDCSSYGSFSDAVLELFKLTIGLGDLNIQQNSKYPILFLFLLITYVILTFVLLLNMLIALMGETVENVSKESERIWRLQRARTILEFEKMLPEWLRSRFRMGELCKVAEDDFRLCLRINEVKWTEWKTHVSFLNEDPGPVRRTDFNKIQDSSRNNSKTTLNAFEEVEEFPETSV

[3] = system: imiquimod-induced psoriasiform skin inflammation; test: Imiquimod (Aldara) psoriasiform model; format: in vivo, mouse; details: topical 1% in PG/EtOH twice daily, day 8
Experimental: The treatment protocol consists of a daily topical application of Aldara (3.18 mg of imiquimod) for 7 days on the shaved back skin of Balb/c mice. Compound C was dissolved in PG/EtOH at 1% and was applied twice daily 2 h before and 6 h after Aldara treatment. Corticosteroid was dissolved in acetone (Vehicle 001) at 0.01% and applied only 2 h before Aldara treatment. Epidermis thickness is then measured at day 8 according to the protocol of FIG. 3. […] Indeed, it induces inflamed scaly skin lesions resembling psoriasis plaques. […] IMQ induced epidermal expression of IL-23, IL-17A, and IL-17F, as well as an increase in splenic Th17 cells (J Immunol. 2009 May 1; 182(9):5836-45). Mice received a daily topical dose of 63.5 mg (14 μl) of commercially available IMQ cream (5%) (Aldara; 3M Pharmaceuticals) on the shaved back skin for 7 consecutive days.

mouse AD-patch model = test: AD-patch model (DERP epicutaneous sensitization); format: in vivo; details: topical 1% in acetone, days 44, 47 and 50; for epidermis thickness, change / inflammatory scores, change: day 51 histology; for TEWL-increase, change: measured day 51
Experimental: Female Balb/c mice were treated with Dermatophagoïdes pteronyssinus (DERP) allergen in 3 cycles of epicutaneous sensitization (patch) on abdominal skin with 2 patches applied twice weekly followed by 2 weeks of rest, during 7 weeks. Antagonists B or D were formulated at 1% in an acetone vehicle, applied to the sensitized-skin 2 hours before DERP-patches installation. Topical treatments with antagonists or a corticosteroid (used as a control) were only performed 3 times in the 3rd and last week of sensitization (at days 44, 47 and 50).
TEWL is measured the last day (Day 51) according to the protocol of FIG. 2.
On day 51, animals are sacrificed and skin is removed and fixed in formalin followed by embedment in paraffin, sectioning and staining with hematoxylin and eosin. Epidermis thickness is measured by averaging the values of measurements of five independent fields of view.
On day 51, animals are sacrificed and skin is removed and fixed in formalin followed by embedment in paraffin, sectioning and staining with hematoxylin and eosin. Inflammation score is quantified by averaging the values of 10 random fields of view per sample, scored for inflammation with a gradient (semi-quantitative scoring from 0 to 5).
At day 51, gene expression of IL4 cytokine is quantified after RNA extraction from skin, RNA retro transcription and PCR using the TaqMan® Universal MasterMix of Applied Biosystem. cDNA of mice of group Vehicle 001 are used as comparator.
At day 51, gene expression of TSLP cytokine is quantified after RNA extraction from skin, RNA retro transcription and PCR using the TaqMan® Universal MasterMix of Applied Biosystem. cDNA of mice of group Vehicle 001 are used as comparator.
AD inflammatory response was induced by epicutaneous sensitization with patches soaked with 100 μg of allergen in sterile saline (Dermatophagoïdes pteronyssinus or DERP) or with vehicle applied on abdominal skin 24 h after shaving and left on for three 1-wk periods (with patch renewal at midweek), with a 2-wk interval between applications. The presence of the patches and of a transparent occlusive dressing above, prevented licking, biting and scratching from mouse, therefore the inflammatory response in this model is not due to the scratch-itch cycle.
Antagonists B or D were formulated at 1% in an acetone vehicle, applied to the sensitized-skin 2 hours before DERP-patches installation. Topical treatments with antagonists or a corticosteroid (used as a control) were only performed 3 times in the 3rd and last week of sensitization (at days 44, 47 and 50).
At the time of the last patch removal (day 51), skin samples and blood were collected.
Skin was collected for histological, immunohistological analyses and real-time PCR after RNA extraction. Ig (IgE, and specific IgG) concentrations in serum were measured by ELISA

rTRPA1 = rTRPA1 (Rattus norvegicus, UniProt Q6RI86); details: cited from earlier work
hTRPA1 = hTRPA1 (Homo sapiens, UniProt O75762); details: value in μM; cited from earlier work
Sequence of hTRPA1 (O75762 whole entry): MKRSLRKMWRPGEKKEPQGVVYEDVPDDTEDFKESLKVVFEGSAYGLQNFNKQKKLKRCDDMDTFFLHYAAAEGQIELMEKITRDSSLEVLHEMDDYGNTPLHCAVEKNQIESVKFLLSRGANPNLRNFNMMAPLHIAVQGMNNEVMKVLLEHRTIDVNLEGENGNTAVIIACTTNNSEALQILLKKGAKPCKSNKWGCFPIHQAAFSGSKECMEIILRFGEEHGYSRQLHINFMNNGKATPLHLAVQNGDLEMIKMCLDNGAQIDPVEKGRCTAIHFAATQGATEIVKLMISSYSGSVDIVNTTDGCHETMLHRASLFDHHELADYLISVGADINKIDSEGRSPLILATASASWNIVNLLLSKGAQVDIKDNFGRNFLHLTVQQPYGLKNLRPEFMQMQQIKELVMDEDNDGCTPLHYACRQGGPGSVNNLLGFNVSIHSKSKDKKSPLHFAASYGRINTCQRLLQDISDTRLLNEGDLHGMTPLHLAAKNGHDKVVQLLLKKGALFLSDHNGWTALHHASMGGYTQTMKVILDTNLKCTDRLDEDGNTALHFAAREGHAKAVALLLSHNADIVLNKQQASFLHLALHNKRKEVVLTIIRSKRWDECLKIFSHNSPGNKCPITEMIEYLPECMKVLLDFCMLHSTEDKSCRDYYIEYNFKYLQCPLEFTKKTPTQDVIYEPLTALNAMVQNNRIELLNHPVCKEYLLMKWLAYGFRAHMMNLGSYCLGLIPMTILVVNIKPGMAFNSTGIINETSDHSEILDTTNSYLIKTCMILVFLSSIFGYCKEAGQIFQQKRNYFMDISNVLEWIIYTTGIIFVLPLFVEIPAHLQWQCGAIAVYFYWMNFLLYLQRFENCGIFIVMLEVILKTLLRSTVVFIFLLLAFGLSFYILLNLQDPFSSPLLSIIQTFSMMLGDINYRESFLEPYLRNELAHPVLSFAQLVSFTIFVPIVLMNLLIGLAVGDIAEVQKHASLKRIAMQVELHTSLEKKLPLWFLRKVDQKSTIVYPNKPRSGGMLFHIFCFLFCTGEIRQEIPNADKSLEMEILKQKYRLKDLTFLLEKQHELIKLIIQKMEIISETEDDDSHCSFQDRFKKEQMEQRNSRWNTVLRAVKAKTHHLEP

Sequence of rTRPA1 (Q6RI86 whole entry): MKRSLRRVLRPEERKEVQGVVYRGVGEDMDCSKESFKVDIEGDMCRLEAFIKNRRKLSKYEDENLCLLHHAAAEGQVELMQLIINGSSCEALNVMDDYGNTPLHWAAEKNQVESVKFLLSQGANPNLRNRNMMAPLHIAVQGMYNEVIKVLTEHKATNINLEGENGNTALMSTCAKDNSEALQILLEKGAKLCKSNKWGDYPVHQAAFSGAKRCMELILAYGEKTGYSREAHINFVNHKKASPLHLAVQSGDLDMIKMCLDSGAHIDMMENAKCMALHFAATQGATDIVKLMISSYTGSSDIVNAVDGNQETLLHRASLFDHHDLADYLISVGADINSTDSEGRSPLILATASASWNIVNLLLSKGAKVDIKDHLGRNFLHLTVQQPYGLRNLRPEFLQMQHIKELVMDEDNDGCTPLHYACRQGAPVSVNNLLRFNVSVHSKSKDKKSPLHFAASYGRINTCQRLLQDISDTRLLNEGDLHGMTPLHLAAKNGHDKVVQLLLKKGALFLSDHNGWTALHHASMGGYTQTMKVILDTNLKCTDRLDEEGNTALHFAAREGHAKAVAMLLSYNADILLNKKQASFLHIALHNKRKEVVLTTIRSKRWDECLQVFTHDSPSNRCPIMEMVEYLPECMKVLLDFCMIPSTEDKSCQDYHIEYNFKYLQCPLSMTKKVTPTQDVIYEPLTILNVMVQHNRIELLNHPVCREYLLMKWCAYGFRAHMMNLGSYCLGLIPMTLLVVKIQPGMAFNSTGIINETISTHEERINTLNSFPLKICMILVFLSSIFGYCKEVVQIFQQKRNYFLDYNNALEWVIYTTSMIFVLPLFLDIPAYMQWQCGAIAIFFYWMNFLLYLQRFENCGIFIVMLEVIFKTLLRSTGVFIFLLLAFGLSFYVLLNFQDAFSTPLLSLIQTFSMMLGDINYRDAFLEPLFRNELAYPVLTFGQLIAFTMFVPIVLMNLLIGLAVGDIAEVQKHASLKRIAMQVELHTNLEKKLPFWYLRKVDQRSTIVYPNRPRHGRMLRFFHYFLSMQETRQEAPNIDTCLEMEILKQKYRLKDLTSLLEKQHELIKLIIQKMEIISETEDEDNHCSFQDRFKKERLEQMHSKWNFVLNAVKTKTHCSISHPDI

SMILES: FC(F)(F)c1ccccc1-c1cc2cn[nH]c2cc1OCC1CC1 [compound C]
- TRPA1 agonist-induced ear edema (ear thickness) [1]: decreased
- oral bioavailability described in rat [2]: Low oral
- Efficacy described in pain model (ip) (pain models; ip): Efficacy
- IC50 (hTRPV3): > 30 µM
- IL-17 production by yO T cells (IL17f mRNA) [3]: did not significantly reduce
- imiquimod-induced epidermis thickness increase [3]: did not significantly reduce

SMILES: CCC(C)c1ccc(NC(=O)Cn2cnc3c2c(=O)n(C)c(=O)n3C)cc1 (stereo not drawn) [compound D, reference compound]
- TRPA1 agonist-induced ear edema (ear thickness) [1]: decreased
- epidermis thickness, change (mouse AD-patch model): −26%
- inflammatory scores, change (mouse AD-patch model): −32%
- TEWL-increase, change (mouse AD-patch model): −60%
- Efficacy described in pain models in rat (pain models; rat): Efficacy
- IC50 (rTRPA1): 0.23 µM
- IC50 (hTRPA1): 14 to 18 µM

SMILES: Cc1cc2[nH]ncc2cc1-c1ccccc1C(F)(F)F [compound B]
- TRPA1 agonist-induced ear edema (ear thickness) [1]: decreased
- epidermis thickness, change (mouse AD-patch model): −32%
- inflammatory scores, change (mouse AD-patch model): −27%
- TEWL-increase, change (mouse AD-patch model): −54%
- IC50 (hTRPV3): > 30 µM
